Test results: patent US8580814B2, “Methods of using (+)-1,4-dihydro-7-[(3S,4S)-3-methoxy-4-(methylamino)-1-pyrrolidinyl]-4- oxo-1-(2-thiazolyl)-1,8-naphthyridine-3-carboxylic acid for treatment of cancer” (priority 2006, dated 2013)

Assay: clinical
Settings: human, in vivo
Protocol: SNS-595 was administered to patients with advanced solid cancers as an IV infusion over 10 minutes on 2 schedules. In the first schedule (A), a weekly dose of SNS-595 was administered for three weeks followed by at least 7 days off (qwk×3). In the second schedule (B), a dose of SNS-595 was administered once every three weeks (q3wk).
In both schedules, the starting dose of SNS-595 was 3 mg/m^2, and doses were escalated by sequential cohorts of 3. The doses were doubled until the first related adverse event at or above Grade 2 or until the first abnormal lab value. The doses were then escalated by a modified Fibonacci schema.
For patients dosed according to schedule A, PK samples were collected on treatment Days 1 and 15 and were assayed using noncompartmental analysis. Plasma SNS-595 concentrations were determined using a validated LC-MS/MS assay. […] FIG. 1 depicts the plasma concentrations of SNS-595 over time among the various patient cohorts.
For patients dosed according to schedule B, pharmacokinetic parameters were evaluated in 36 patients (21 heavily pretreated and 15 minimally pretreated) after a single dose of 3 to 75 mg/m^2.
In study A, pharmacokinetics were assessed on Days 1 and 15 (after the first and third doses).

Compound: CN[C@H]1CN(c2ccc3c(=O)c(C(=O)O)cn(-c4nccs4)c3n2)C[C@@H]1OC [SNS-595, (+)-1,4-dihydro-7-[(3S,4S)-3-methoxy-4-(methylamino)-1-pyrrolidinyl]-4-oxo-1-(2-thiazolyl)-1,8-naphthyridine-3-carboxylic acid]
- AUC (area under curve) versus dose: increased proportionally with dose
- CL, averaged: 2 L/hr/m^2
- CL, volume of distribution and T1/2 across doses: remained unchanged
- Clearance (CL): 2.2 L/hr/m2
- Clearance (CL), range: 1.0-3.8 L/hr/m^2
- Exposure: 1600 to 15000 ng·h/mL
- T ½, Average: 21.3 ± 5.3 h
- T ½, Range: 13 to 56 h
- Vss, averaged: 53 L/m^2
- clearance (CL), averaged: 2 L/hr/m^2
- drug dependent alterations in pharmacokinetic parameters: No evidence of drug dependent alterations
- exposure: 1100 to 46000 ng·h/mL
- volume of distribution (Vss), averaged: 48 L/m^2
- AUCinf (3 mg/m2): 1140 ± 260 ng·h/mL
- T ½ (3 mg/m2): 16.4 ± 4.8 h
- AUC(0-inf) (3 mg/m2, AUCinf): 1710 ± 200 ng·h/mL
- half-life (3 mg/m2, T ½): 23.3 ± 7.2 h
- AUCinf (6 mg/m2): 3040 ± 320 ng·h/mL
- Cmax (6 mg/m2): 347 ± 220 ng/mL
- T ½ (6 mg/m2): 22.2 ± 1.9 h
- AUC(0-inf) (6 mg/m2, AUCinf): 2090 ± 530 ng·h/mL
- Cmax (6 mg/m2, Cmax): 531 ± 280 ng/mL
- half-life (6 mg/m2, T ½): 13.5 ± 2.2 h
- AUCinf (12 mg/m2): 6320 ± 220 ng·h/mL
- Cmax (12 mg/m2): 2250 ± 1070 ng/mL
- T ½ (12 mg/m2): 18.0 ± 4.1 h
- AUC(0-inf) (12 mg/m2, AUCinf): 6810 ± 1680 ng·h/mL
- Cmax (12 mg/m2, Cmax): 1840 ± 2700 ng/mL
- half-life (12 mg/m2, T ½): 19.9 ± 5.3 h
- T ½ (15 mg/m2): 26.4 ± 15.2 h
- Vssobs (15 mg/m2): 43.8 ± 7.90 L/m^2
- AUC(0-inf) (15 mg/m2, AUCinf): 10800 ± 4700 ng·h/mL
- Cmax (15 mg/m2, Cmax): 865 ± 318 ng/mL
- Vssobs (18 mg/m2): 47.19 ± 8.06 L/m^2
- AUC(0-inf) (18 mg/m2, AUCinf): 8500 ± 2860 ng·h/mL
- Cmax (18 mg/m2, Cmax): 1690 ± 830 ng/mL
- half-life (18 mg/m2, T ½): 15.8 ± 4.2 h
- AUCinf (24 mg/m2): 12630 ± 860 ng·h/mL
- T ½ (24 mg/m2): 15.7 ± 3.2 h
- AUC(0-inf) (24 mg/m2, AUCinf): 15200 ng·h/mL
- half-life (24 mg/m2, T ½): 24.2 h
- T ½ (36 mg/m2): 22.5 ± 4.2 h
- Vssobs (36 mg/m2): 61.4 ± 12.8 L/m^2
- AUC(0-inf) (36 mg/m2, AUCinf): 18000 ± 730 ng·h/mL
- Cmax (36 mg/m2, Cmax): 3380 ± 1920 ng/mL
- T ½ (48 mg/m2): 26.4 ± 13.1 h
- Vssobs (48 mg/m2): 58.8 ± 14.5 L/m^2
- AUC(0-inf) (48 mg/m2, AUCinf): 29400 ± 11300 ng·h/mL
- Cmax (48 mg/m2, Cmax): 3080 ± 1920 ng/mL
- T ½ (60 mg/m2): 25.0 ± 17.9 h
- Vssobs (60 mg/m2): 48.0 ± 7.3 L/m^2
- AUC(0-inf) (60 mg/m2, AUCinf): 40700 ± 23700 ng·h/mL
- Cmax (60 mg/m2, Cmax): 3860 ± 1680 ng/mL
- T ½ (75 mg/m2): 25.0 ± 4.9 h
- Vssobs (75 mg/m2): 56.3 ± 9.4 L/m^2
- AUC(0-inf) (75 mg/m2, AUCinf): 46100 ± 6120 ng·h/mL
- Cmax (75 mg/m2, Cmax): 5050 ± 1720 ng/mL
- half-life (T1/2, averaged): 19 h
- half-life (T1/2 ± SD): 22 ± 11 h
- half-life (T ½, Average): 18.5 ± 4.6 h
- half-life (T ½, Range): 10 to 33 h
- half-life (terminal half-life): ~19 h
- half-life (terminal half-life (T1/2)): ~21 h
- half-life (terminal half-life (T1/2), range): 13 to 49 h
